# Source: patent US20050004144A1, “Combined use of IMPDH inhibitors with toll-like receptor agonists” (REGENTS OF THE UNIVERSITY OF CALIFORNIA, priority 2003, published 2005)
# Entries after “also recorded” stand apart in the source; their conditions may differ. Like-named read-outs stand apart in the source and are kept apart here.
# Columns and labels:
# [1] = tested on: Mouse bone marrow-derived macrophages (BMDM); experiment: Cytokine production of TLR ligand-stimulated BMDM with IMPDH inhibitors (ELISA); assay type: cell-based; settings: for cytokine production induced by several different TLR-L: mouse bone marrow derived macrophages; for IL-12 production with TOG plus IMPDH inhibitor: TOG 100 μM, mizoribine 10 μM or mizoribine base 10 μM
# [2] = tested on: IRF-1, IRF-3, IRF-7, NF-kB, STAT-1; experiment: Activation of IRFs, NF-kB and STAT-1 in BMDM (immunoblotting of nuclear extracts, EMSA); assay type: cell-based, mouse
# [3] = tested on: human peripheral blood leukocytes (hPBL); experiment: IL-12 production in human peripheral blood leukocytes (ELISA); assay type: cell-based; settings: TOG 100 μM, 24 hours
# [4] = tested on: STAT-1; experiment: STAT-1 activation in hPBL (western blotting); assay type: cell-based, human; settings: by TOG, R-848 1 μM plus increasing doses, 3 hrs
# Procedure: In the right panel, hPBL were stimulated with R-848 (1 μM) plus increasing doses of Mb or ribavirin (Rb) for 3 hrs and activation of STAT-1 was measured by western blotting. β-actin levels were measured as a control
# [5] = tested on: human peripheral blood mononuclear cells; experiment: Cytokine production of TLR-L-stimulated human peripheral blood mononuclear cells with IMPDH inhibitors; assay type: cell-based
# [6] = tested on: Punta toro; settings: literature (Smee et al.; Sidwell et al.); cited from earlier work
# [7] = tested on: DNA dependent protein kinase catalytic subunit (DNA-PKcs); experiment: Activation of DNA-PK in BMDM (in vitro kinase assay, GST-p53 substrate or autophosphorylation); assay type: cell-based
# Procedure: IMPDH inhibitors and TLR7 activate DNA-PK. BMDM were stimulated with the Mb alone, TOG alone, or a combination of Mb and TOG. Activation of DNA-PK was measured by in vitro kinase assay using a GST-p53 substrate or DNA-PKcs autophosphorylation.
# Activation of DNA-PK was measured by in vitro kinase assay using a GST-p53 substrate or DNA-PKcs autophosphorylation.
# [8] = tested on: mice; settings: cited from earlier work
# [9] = tested on: splenocytes; experiment: Type I interferon production by splenocytes (bioassay); assay type: cell-based, mice; settings: for TLR7 mediated type I interferon production in splenocytes: TOG or R-848 with or without Mb 10 μM, 24 hrs
# Procedure: (§1) Type I interferon in serum was measured and results are shown.
# Splenocytes of WT or SCID mice were stimulated with the indicated stimuli and Type I interferon was by bioassay.
# (FIG. 20.) Splenocytes of WT or SCID mice were stimulated with the indicated stimuli and Type I interferon levels were determined by bioassay.
# [10] = tested on: Type I interferon in serum; experiment: Type I interferon in serum of mice injected with TOG and Mb; assay type: in vivo; settings: mice injected intravenously with TOG 250 μg and increasing doses of Mb
# Procedure: as §1
# [11] = tested on: bone marrow derived dendritic cells (DC's); experiment: TLR7 signaling in bone marrow derived dendritic cells; assay type: cell-based; settings: DC's stimulated by R-848 with Mb
# Procedure: Bone marrow derived DC's were stimulated by R-848 with or without Mb for the indicated time period, and activation of NF-κB, MAP kinases (p38 and EKR) was measured. Actin levels were measured as a control.
# [12] = tested on: Listeria monocytogenes; experiment: Listeria infection in mice pretreated with TLR ligands; assay type: in vivo; settings: 10 μg three days before infection with 7×10^5 Listeria monocytogenes, observed nine days
# Procedure: Groups of six mice were injected with 10 μg of either ISS-ODN, Pam3Cys, or polyI:C three days before infection with 7×10^5 Listeria monocytogenes. […] 5 mice also each received 10 μg of R-848, 24 hours before infection. […]
# [13] = tested on: mice; experiment: ISS pre-priming before β-gal immunization (splenocyte IFN-γ and CTL response); assay type: in vivo; settings: ISS up to 14 days prior to β-gal, compared to β-gal alone (P≦0.05)
# Source text: FIG. 3 depicts splenocyte CTL and IFN-γ response after intradermal ISS pre-priming. Results represent the mean ± SE for four mice in each group and similar results were obtained in two other independent experiments. […] (a) IFN-γ response. […] (C) Comparison of CTL response at an effector:target ratio of 25:1.
# In this experiment, the amount of time between which a mouse exposed to an antigen can produce an immune response was examined. (FIG. 3)
# The results in FIG. 3 represent the mean ± SE for four mice in each group. Similar results were obtained in two other independent experiments. […] (A) IFN-γ response. […] (C) Comparison of CTL response at an effector:target ratio of 25:1.
# [14] = tested on: Salmonella; settings: human macrophages treated overnight with IFN-γ 100 ng/ml; over 24 hours; cited from earlier work
# [15] = tested on: murine bone marrow mononuclear cells; experiment: Cytokine responses of murine bone marrow mononuclear cells to TLR ligands (ELISA); assay type: cell-based; settings: 48 hours, supernatant ELISA, PolyI:C 100 μg/ml, LPS 1 μg/ml, ISS-ODN 10 μg/ml, n.d.=none detected
# Procedure: The cytokine responses of murine bone marrow mononuclear cells were compared to a TLR2-L (PGS), a TLR3-L (polyI:C), a TLR4-L(LPS), and a TLR9-L (ISS-ODN). IL-12, IL-10, IL-6, IL-1b, and KC (a chemokine) were assayed by ELISA (See 2.1.b Results).
# Bone marrow cells were cultured in triplicate at 5×10^5 cells/ml with each TLR ligand in dose response studies covering a 3 log concentration range. The cells were cultured for 48 hours and supernatant cytokine levels were analyzed by ELISA. The minimal optimal concentration for each reagent was reported with a three fold increase in TLR ligand concentration not leading to any significant increase in cytokine production. Results are reported as means ± standard errors. n.d.=none detected
# [16] = tested on: BALB/c mice; experiment: Systemic adjuvant activity: intradermal immunization with ovalbumin (OVA) and TLR ligand; assay type: in vivo
# Procedure: Recently, the systemic adjuvant activities of other TLR-Ls were evaluated.
# Six-week-old BALB/c mice (4 per group) were intradermally immunized with ovalbumin (OVA) (20 ug) and TLR ligand on day 0 and day 7. During week 6, serum was collected and splenocytes were harvested and cultured with OVA (50 ug/ml). After 3 days, splenocyte culture supernatants were collected. Sera Ig levels and splenocyte supernatant cytokine levels were determined by ELISA. Results are reported as means ± standard errors. n.d.=none detected.
# [17] = tested on: cowpox; settings: cidofovir 30 mg/kg i.p.; Smee et al. 2002; cited from earlier work
# [18] = splenocytes of week 6 cultured 3 days with OVA 50 ug/ml, supernatant ELISA, same immunization, n.d.=none detected
molecule,measurement,setting,value
NC(=O)c1ncn([C@@H]2O[C@H](CO)[C@@H](O)[C@H]2O)n1 [Ribavirin],IL-6 production by R-848 in the presence of ribavirin,"[1]; macrophages, abolished by addition of guanosine to the media (not shown)",enhancement of IL-6 production by R-848
same,cytokine production induced by several different TLR-L,[1],potentiated cytokine production
same,cytokine induction by ribavirin alone,[1]; no TLR ligand,did not induce any cytokines
same,TLR-mediated production of IL-12 (p40) in the presence of ribavirin,"[1]; ribavirin 10, 50, 100 μM, TLR ligands TOG 100 μM, R-848 1 μM, Pam3Cys 5 μg, p(I:C) 5 μg, LPS 10 ng, ISS 5 μg, 24 hrs",enhances TLR-mediated production of IL-12 (p40) in a dose dependent manner
same,TOG-induced NF-κB activation (EMSA) and IRF-3 (western blotting),"[2]; BMDM, TOG with Rb 50 μM",enhances TOG-induced NF-κB activation and activates IRF-3 transcription factor
same,IL-12 production after stimulation with TOG,[3],enhanced the increase of IL-12 production
same,activation of STAT-1,[4],enchanced activiation
same,cytokine production induced by several different TLR-L,[5],potentiated cytokine production
same,protection of mice from Punta toro virus infection,[6],significant activity
"Nc1nc2c(sc(=O)n2[C@@H]2O[C@H](CO)[C@@H](O)[C@H]2O)c(=O)[nH]1 [TOG, 7-thia-8-oxoguanosine]","levels of nuclear IRF-1, IRF-3 and IRF-7",[2]; bone marrow cells exposed to TOG,increase markedly
same,activation of DNA-PKcs,[7]; single agents,activate DNA dependent protein kinase catalytic subunit (DNA-PKcs)
same,protection of mice from Punta toro virus infection,[6],protected mice from lethal infection; also recorded: significant activity
same,toxicity to mice,"[8]; mouse, in vivo",remarkably non-toxic to mice
NC(=O)c1[nH]cnc1O [mizoribine base],IL-12 production with TOG plus IMPDH inhibitor,[1]; 24 hrs,synergize with TOG
same,cytokine production induced by several different TLR-L,[1],potentiated cytokine production
same,dependence of IRF activation on DNA-PKcs and MyD88,[2]; cells from wild-type mice and SCID mice,via DNA-PKcs but not MyD88
same,TLR7 mediated type I interferon production in splenocytes,[9],augments TLR-7 mediated type I interferon production
same,dependence of type I interferon induction by TOG combined with Mb on DNA-PKcs,"[9]; splenocytes of WT or SCID mice, TOG 100 μM, Mb 10 μM",partially dependent on DNA-PKcs
same,increase of Type I interferon in blood (serum),[10],augments TLR-7 mediated type I interferon production
same,IL-12 production after stimulation with TOG,[3],enhanced the increase of IL-12 production
same,activation of STAT-1,[4],enchanced activiation
same,"TLR7 signaling (NF-κB, MAP kinases p38 and EKR)",[11],enhanced TLR7 signaling in DC's
same,DNA-PK activation by the combination of TOG and Mb,[7],increased phosphorylation of substrates and earlier onset of phosphorylation
same,cytokine production induced by several different TLR-L,[5],potentiated cytokine production
CCCCCCn1cnc2c(=O)[nH]c(N)nc21 [9-hexylguanine],protection of mice from Punta toro virus infection,[6],protected mice from lethal infection
COc1c(C)c2c(c(O)c1C/C=C(\C)CCC(=O)O)C(=O)OC2 [mycophenolic acid],IL-12 production after stimulation with TOG,[3],enhanced the increase of IL-12 production
Pam3Cys,protection (survival) of mice from Listeria infection,[12],lived longer than controls
"NC(=O)c1ncn([C@@H]2O[C@H](CO)[C@@H](O)[C@H]2O)c1O [Mizoribine, mizoribine]",IL-12 production with TOG plus IMPDH inhibitor,[1]; 24 hrs,synergize with TOG
same,cytokine production induced by several different TLR-L,[1],potentiated cytokine production
same,TLR7 mediated type I interferon production in splenocytes,[9],more than two-fold
same,increase of Type I interferon in blood (serum),[10],more than 4 fold
same,cytokine production induced by several different TLR-L,[5],potentiated cytokine production
Nc1nc2c(ccn2[C@@H]2O[C@H](CO)[C@@H](O)[C@H]2O)c(=O)[nH]1 [7-deazaguanosine],protection of mice from Punta toro virus infection,[6],protected mice from lethal infection
same,toxicity to mice,[8]; after systemic administration,remarkably non-toxic to mice
"m-ODN: control mutated ODN 5′-TGACTGTGAAGGTTAGAGATGA-3′ that lacks ISS activity (DNA, all phosphorothioate, methylation of C not given here)",CTL response,[13],did not demonstrate an increased IFN-γ or CTL response
same,splenocyte IFN-γ response,[13],did not demonstrate an increased IFN-γ or CTL response
IFN-γ,killing of the inoculum,[14],90-99%
PolyI:C,IL-12,"[15]; 5×10^5 cells/ml, minimal optimal concentration: PGS 100 μg/ml, means ± standard errors",570 ± 62 pg/mL
same,IL-1b,[15]; PGS 100 μg/ml,148 ± 27 pg/mL
same,IL-6,[15]; PGS 100 μg/ml,2380 ± 657 pg/mL
same,IL-10,[15]; PGS 100 μg/ml,1374 ± 237 pg/mL
same,KC,"[15]; chemokine, PGS 100 μg/ml",349 ± 62 pg/mL
same,systemic adjuvant activity for vaccination,"[16]; mouse, in vivo",effective systemic adjuvants
same,IgGl,"[16]; serum, week 6, OVA 20 ug + TLR ligand i.d. day 0 and day 7, PGS 50 ug, PolyI:C 50 ug, LPS 20 ug, ISS-ODN 50 ug",18853 ± 2439 U/ml
same,IgG2a,"[16]; serum, week 6, OVA 20 ug + TLR ligand i.d. day 0 and day 7, PGS 50 ug, PolyI:C 50 ug, LPS 20 ug, ISS-ODN 50 ug, n.d.=none detected",2642 ± 380 U/ml
same,IFNg,[16]; [18],672 ± 322 pg/mL
same,IL-5,[16]; [18],236 ± 87 pg/mL
"Nc1ccn(C[C@@H](CO)OCP(=O)(O)O)c(=O)n1 [Cidofovir, cidofovir]",lung viral titer,[17],~10^7 PFU/g of lung
same,protection of mice from death,[17],protects all mice from death
